Assay results: patent publication US12281102B2, “Inhibitors of APOL1 and methods of using same” (Vertex Pharmaceuticals Incorporated, priority 2020, dated 2025)
Where a name gives a salt, the structure may show the parent alone.

How the values were obtained:
G1 APOL1 = biological target: T1, G1 APOL1 (Homo sapiens, UniProt O14791, I384M/S342G); assay: Acute APOL1 Thallium Assay with inducible stable clones of HEK 293 cells; assay type: cell-based; conditions: HEK 293 T-Rex inducible stable clone expressing G1 APOL1; read-out: Thallium Assay (IC50)
T1 construct: expressed in transfected cells
T1 sequence (O14791 28-398 S342G/I384M): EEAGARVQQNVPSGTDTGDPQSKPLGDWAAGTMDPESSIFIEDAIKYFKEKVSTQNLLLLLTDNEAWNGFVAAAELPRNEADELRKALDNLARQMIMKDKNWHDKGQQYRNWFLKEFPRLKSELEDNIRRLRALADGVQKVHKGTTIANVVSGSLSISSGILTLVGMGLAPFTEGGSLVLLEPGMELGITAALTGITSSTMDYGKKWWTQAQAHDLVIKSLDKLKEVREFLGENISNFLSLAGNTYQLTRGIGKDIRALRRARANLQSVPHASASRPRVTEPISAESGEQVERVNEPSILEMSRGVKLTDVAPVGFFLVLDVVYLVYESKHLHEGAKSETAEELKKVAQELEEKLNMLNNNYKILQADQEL
Outline: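 A tetracycline-inducible HEK293 T-Rex clone (G1 DC3.25) expressing G1 APOL1 was plated at 26,000 cells/well, with tetracycline added at plating to induce expression. Cells were loaded with an AM-ester thallium-sensitive dye and stimulated with Tl+. Pore activity was read as the FLIPR Tetra fluorescence increase from Tl+ influx.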

APOL1 G1 Protein = biological target: T2, APOL1 G1 Protein (Homo sapiens, UniProt O14791, I384M/S342G); assay: Trypanosoma brucei brucei lysis assay using APOL1 recombinant protein (AlamarBlue viability); assay type: cell-based; conditions: Trypanosoma brucei brucei lysis with recombinant APOL1 protein
T2 sequence (O14791 28-398 S342G/I384M): T1 sequence (O14791 28-398 S342G/I384M)

IC50 (G1 APOL1)	Compound	IC50 (APOL1 G1 Protein)
< 250 nM	Cc1ccc(-c2[nH]c3c(F)cc(F)cc3c2C2CC(N)C2)cc1 (mixture of isomers) [Compound 4, 3-[5,7-difluoro-2-(p-tolyl)-1H-indol-3-yl]cyclobutanamine]	< 250 nM
< 250 nM	NC1CC(c2c(-c3ccc(Cl)cc3)[nH]c3c(F)cc(F)cc23)C1 (mixture of isomers) [Compound 10, 3-[2-(4-chlorophenyl)-5,7-difluoro-1H-indol-3-yl]cyclobutanamine]	< 250 nM
250 to 1000 nM	COc1ccc(-c2[nH]c3c(F)cc(F)cc3c2C2CC(N)C2)cc1 (mixture of isomers) [Compound 12, 3-[5,7-difluoro-2-(4-methoxyphenyl)-1H-indol-3-yl]cyclobutanamine]	< 250 nM
250 to 1000 nM	CC(=O)OC1CC(c2c(-c3ccc(F)cc3)[nH]c3c(F)cc(F)cc23)C1 (mixture of isomers) [Compound 173, [3-[5,7-difluoro-2-(4-fluorophenyl)-1H-indol-3-yl]cyclobutyl]acetate]	< 250 nM
< 250 nM	NCC1CC(c2c(-c3ccc(Cl)cc3)[nH]c3c(F)cc(F)cc23)C1 (mixture of isomers) [Compound 176, (3-(2-(4-chlorophenyl)-5,7-difluoro-1H-indol-3-yl)cyclobutyl)methanamine]	< 250 nM
250 to 1000 nM	O=S(=O)(NC[C@H]1C[C@H](c2c(-c3ccc(F)cc3)[nH]c3c(F)cc(F)cc32)C1)c1c[nH]cn1 [Compound 415]	–
> 1000 nM	O=S(=O)(NC[C@H]1C[C@H](c2c(-c3ccc(F)cc3)[nH]c3c(F)cc(F)cc32)C1)c1cn[nH]c1 [Compound 416]	–
> 1000 nM	O=c1ccc2cc(S(=O)(=O)NC[C@H]3C[C@H](c4c(-c5ccc(F)cc5)[nH]c5c(F)cc(F)cc54)C3)ccc2[nH]1 [Compound 417]	–
> 1000 nM	O=c1[nH]c2ccc(S(=O)(=O)NC[C@H]3C[C@H](c4c(-c5ccc(F)cc5)[nH]c5c(F)cc(F)cc54)C3)cc2[nH]1 [Compound 418]	–
> 1000 nM	O=S(=O)(NC[C@H]1C[C@H](c2c(-c3ccc(F)cc3)[nH]c3c(F)cc(F)cc32)C1)c1n[nH]c2ncccc12 [Compound 419]	–
> 1000 nM	O=C1c2ccccc2C(=O)N1CCS(=O)(=O)NC[C@H]1C[C@H](c2c(-c3ccc(F)cc3)[nH]c3c(F)cc(F)cc32)C1 [Compound 420]	–
> 1000 nM	O=C1C=C(NC[C@H]2C[C@H](c3c(-c4ccc(F)cc4)[nH]c4c(F)cc(F)cc43)C2)C(=O)N1 [Compound 421, 3-((((1r,3r)-3-(5,7-difluoro-2-(4-fluorophenyl)-1H-indol-3-yl)cyclobutyl)methyl)amino)-1H-pyrrole-2,5-dione]	–
250 to 1000 nM	O=C1CC(NC[C@H]2C[C@H](c3c(-c4ccc(F)cc4)[nH]c4c(F)cc(F)cc43)C2)C(=O)N1 (stereo partly shown) [Compound 422, 3-((((1r,3r)-3-(5,7-difluoro-2-(4-fluorophenyl)-1H-indol-3-yl)cyclobutyl)methyl)amino)pyrrolidine-2,5-dione]	–
> 1000 nM	Fc1ccc(-c2[nH]c3c(F)cc(F)cc3c2[C@H]2C[C@H](CNc3nnc(C(F)(F)F)s3)C2)cc1 [Compound 423, N-(((1r,3r)-3-(5,7-difluoro-2-(4-fluorophenyl)-1H-indol-3-yl)cyclobutyl)methyl)-5-(trifluoromethyl)-1,3,4-thiadiazol-2-amine]	–
< 250 nM	OC[C@H]1C[C@H](c2c(-c3ccc(F)cc3)[nH]c3c(F)cc(F)cc32)C1 [Compound 425, [3-[5,7-difluoro-2-(4-fluorophenyl)-1H-indol-3-yl]cyclobutyl]methanol]	–
250 to 1000 nM	NCC1(F)CC(c2c(-c3ccc(F)cc3)[nH]c3c(F)cc(F)cc23)C1 (stereo not shown) [Compound 428, [3-[5,7-difluoro-2-(4-fluorophenyl)-1H-indol-3-yl]-1-fluoro-cyclobutyl]methanamine]	–
250 to 1000 nM	NC[C@]1(O)C[C@@H](c2c(-c3ccc(F)cc3)[nH]c3c(F)cc(F)cc32)C1 [Compound 430, (1s,3s)-1-(aminomethyl)-3-(5,7-difluoro-2-(4-fluorophenyl)-1H-indol-3-yl)cyclobutan-1-ol]	–
> 1000 nM	CC(=O)NC[C@]1(O)C[C@@H](c2c(-c3ccc(F)cc3)[nH]c3c(F)cc(F)cc32)C1 [Compound 431, N-(((1s,3s)-3-(5,7-difluoro-2-(4-fluorophenyl)-1H-indol-3-yl)-1-hydroxycyclobutyl)methyl)acetamide]	–
> 1000 nM	CC(=O)NC1CCC(c2c(-c3ccc(F)cc3)[nH]c3c(F)cc(F)cc23)CC1 (stereo not shown) [Compound 435, N-(4-(5,7-difluoro-2-(4-fluorophenyl)-1H-indol-3-yl)cyclohexyl)acetamide]	–

IC50 (G1 APOL1)	Compound	IC50 (APOL1 G1 Protein)
< 250 nM	Fc1ccc(-c2[nH]c3c(F)cc(F)cc3c2CC2CNC2)cc1 [Compound 436, 3-(azetidin-3-ylmethyl)-5,7-difluoro-2-(4-fluorophenyl)-1H-indole]	–
250 to 1000 nM	O=C(N1CC(Cc2c(-c3ccc(F)cc3)[nH]c3c(F)cc(F)cc23)C1)C1(CO)CC1 [Compound 437, [3-[[5,7-difluoro-2-(4-fluorophenyl)-1H-indol-3-yl]methyl]azetidin-1-yl]-[1-(hydroxymethyl)cyclopropyl]methanone (Trifluoroacetate salt)]	–
< 250 nM	C[C@H](O)C(=O)N1CC(Cc2c(-c3ccc(F)cc3)[nH]c3c(F)cc(F)cc23)C1 [Compound 438]	–
< 250 nM	O=C(CCO)N1CC(Cc2c(-c3ccc(F)cc3)[nH]c3c(F)cc(F)cc23)C1 [Compound 439]	–
250 to 1000 nM	CNCC(=O)N1CC(Cc2c(-c3ccc(F)cc3)[nH]c3c(F)cc(F)cc23)C1 [Compound 440]	–
250 to 1000 nM	O=C(c1c[nH]cn1)N1CC(c2c(-c3ccc(F)cc3)[nH]c3c(F)cc(F)cc23)C1 [Compound 441, (3-(5,7-difluoro-2-(4-fluorophenyl)-1H-indol-3-yl)azetidin-1-yl)(1H-imidazol-4-yl)methanone]	–
250 to 1000 nM	O=C(N1CC(c2c(-c3ccc(F)cc3)[nH]c3c(F)cc(F)cc23)C1)C1(O)CC1 [Compound 442, (3-(5,7-difluoro-2-(4-fluorophenyl)-1H-indol-3-yl)azetidin-1-yl)(1-hydroxycyclopropyl)methanone]	–
> 1000 nM	O=C(C1CC1)N1CCC(Cc2c(-c3ccc(F)cc3)[nH]c3c(F)cc(F)cc23)C1 (stereo not shown) [Compound 445, Cyclopropyl-[3-[[5,7-difluoro-2-(4-fluorophenyl)-1H-indol-3-yl]methyl]pyrrolidin-1-yl]methanone]	–
250 to 1000 nM	NC(=O)C1(C(=O)N[C@H]2C[C@H](c3c(-c4ccc(F)cc4)[nH]c4c(F)cc(F)cc43)C2)CC1 [Compound 446, N^1′-[3-[5,7-difluoro-2-(4-fluorophenyl)-1H-indol-3-yl]cyclobutyl]cyclopropane-1,1-dicarboxamide]	–
250 to 1000 nM	NC(=O)CC(=O)N[C@H]1C[C@H](c2c(-c3ccc(F)cc3)[nH]c3c(F)cc(F)cc32)C1 [Compound 447, N′-[3-[5,7-difluoro-2-(4-fluorophenyl)-1H-indol-3-yl]cyclobutyl]propanediamide]	–
250 to 1000 nM	NC(=O)CNC(=O)N[C@H]1C[C@H](c2c(-c3ccc(F)cc3)[nH]c3c(F)cc(F)cc32)C1 [Compound 448, 2-(3-((1r,3r)-3-(5,7-difluoro-2-(4-fluorophenyl)-1H-indol-3-yl)cyclobutyl)ureido)acetamide]	–
> 1000 nM	NC(=O)CNC(=O)C1CC(Cc2c(-c3ccc(F)cc3)[nH]c3c(F)cc(F)cc23)C1 (stereo not shown) [Compound 449, N-(2-amino-2-oxoethyl)-3-((5,7-difluoro-2-(4-fluorophenyl)-1H-indol-3-yl)methyl)cyclobutane-1-carboxamide]	–
250 to 1000 nM	NC(=O)CC(=O)NC[C@H]1C[C@H](c2c(-c3ccc(F)cc3)[nH]c3c(F)cc(F)cc32)C1 [Compound 450, N^1-(((1r,3r)-3-(5,7-difluoro-2-(4-fluorophenyl)-1H-indol-3-yl)cyclobutyl)methyl)malonamide]	–
250 to 1000 nM	NC(=O)C(=O)NC[C@H]1C[C@H](c2c(-c3ccc(F)cc3)[nH]c3c(F)cc(F)cc32)C1 [Compound 451]	–
> 1000 nM	NC(=O)C1(C(=O)NC[C@H]2C[C@H](c3c(-c4ccc(F)cc4)[nH]c4c(F)cc(F)cc43)C2)CC1 [Compound 452]	–
> 1000 nM	NC(=O)C(=O)NC[C@H]1C[C@@H](c2c(-c3ccc(F)cc3)[nH]c3c(F)cc(F)cc32)C1 [Compound 453, N^1-(((1s,3s)-3-(5,7-difluoro-2-(4-fluorophenyl)-1H-indol-3-yl)cyclobutyl)methyl)oxalamide]	–
> 1000 nM	CN(C)C(=O)CCC(=O)NC[C@H]1C[C@@H](c2c(-c3ccc(F)cc3)[nH]c3c(F)cc(F)cc32)C1 [Compound 454, N^1-(((1s,3s)-3-(5,7-difluoro-2-(4-fluorophenyl)-1H-indol-3-yl)cyclobutyl)methyl)-N^4,N^4-dimethylsuccinamide]	–
250 to 1000 nM	NC(=O)C(=O)N1CC(Cc2c(-c3ccc(F)cc3)[nH]c3c(F)cc(F)cc23)C1 [Compound 455, 2-[3-[[5,7-difluoro-2-(4-fluorophenyl)-1H-indol-3-yl]methyl]azetidin-1-yl]-2-oxo-acetamide]	–

Compound	IC50 (G1 APOL1)	IC50 (APOL1 G1 Protein)
O=C(CO)N[C@H]1C[C@H](c2c(-c3ccc(F)cc3)[nH]c3c(F)cc(F)cc32)C1 [Compound 429, N-((1r,3r)-3-(5,7-difluoro-2-(4-fluorophenyl)-1H-indol-3-yl)cyclobutyl)-2-hydroxyacetamide]	250 to 1000 nM	–
